Read-outs that look alike come from different tables or passages of the source.
Columns and labels:
PIK3Cδ_h = PIK3Cδ_h (Homo sapiens (Human), UniProt O00329); assay: KINOMEscan enzyme binding assay, PIK3Cδ; conditions: DiscoveRx
Description: (§1) Enzyme Binding Assays (KINOMEscan®) Kinase enzyme binding affinities of compounds disclosed herein were determined using the KINOMEscan technology performed by DiscoveRx Corporation, San Diego, Calif., USA (www.kinomescan.com). Table A reports the obtained Kd values (nM), with the Kd being the inhibitor binding constant: […]

PIK3Cα_h = PIK3Cα_h (Homo sapiens (Human), UniProt P42336); assay: KINOMEscan enzyme binding assay, PIK3Cα; conditions: DiscoveRx
Sequence of PIK3Cα_h (P42336 whole entry): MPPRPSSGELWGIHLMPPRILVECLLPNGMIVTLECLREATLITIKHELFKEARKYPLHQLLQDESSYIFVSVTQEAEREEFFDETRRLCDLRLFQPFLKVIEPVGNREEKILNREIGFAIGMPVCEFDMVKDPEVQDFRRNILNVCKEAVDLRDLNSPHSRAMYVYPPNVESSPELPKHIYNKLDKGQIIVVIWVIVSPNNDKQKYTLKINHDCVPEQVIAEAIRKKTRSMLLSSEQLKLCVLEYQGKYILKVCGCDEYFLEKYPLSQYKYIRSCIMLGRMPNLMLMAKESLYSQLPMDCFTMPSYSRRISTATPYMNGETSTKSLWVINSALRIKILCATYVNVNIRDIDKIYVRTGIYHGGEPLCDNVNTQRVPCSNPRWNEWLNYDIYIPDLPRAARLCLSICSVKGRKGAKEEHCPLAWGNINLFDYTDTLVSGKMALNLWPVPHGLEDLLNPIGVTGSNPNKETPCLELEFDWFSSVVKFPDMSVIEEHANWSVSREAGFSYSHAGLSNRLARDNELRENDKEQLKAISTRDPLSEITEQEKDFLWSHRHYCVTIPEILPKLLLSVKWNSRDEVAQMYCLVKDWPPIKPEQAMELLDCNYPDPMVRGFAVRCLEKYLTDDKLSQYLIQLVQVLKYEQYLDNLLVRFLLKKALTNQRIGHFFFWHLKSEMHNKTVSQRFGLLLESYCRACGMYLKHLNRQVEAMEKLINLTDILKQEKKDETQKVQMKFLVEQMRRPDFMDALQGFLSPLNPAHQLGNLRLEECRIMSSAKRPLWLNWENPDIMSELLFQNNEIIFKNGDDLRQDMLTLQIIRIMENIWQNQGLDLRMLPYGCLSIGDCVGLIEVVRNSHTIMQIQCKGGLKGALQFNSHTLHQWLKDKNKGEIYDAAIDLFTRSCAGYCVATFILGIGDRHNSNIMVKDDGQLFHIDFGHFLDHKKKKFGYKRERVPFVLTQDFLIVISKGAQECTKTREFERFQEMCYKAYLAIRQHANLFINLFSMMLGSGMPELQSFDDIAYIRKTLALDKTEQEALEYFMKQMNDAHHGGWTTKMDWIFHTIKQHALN
Description: (§2) Enzyme Binding Assays (KINOMEscan®) Kinase enzyme binding affinities of compounds disclosed herein were determined using the KINOMEscan technology performed by DiscoveRx Corporation, San Diego, Calif., USA (www.kinomescan.com).

PIK3Cγ_h = PIK3Cγ_h (Homo sapiens (Human), UniProt P48736); assay: KINOMEscan enzyme binding assay, PIK3Cγ; conditions: DiscoveRx
Sequence of PIK3Cγ_h (P48736 whole entry): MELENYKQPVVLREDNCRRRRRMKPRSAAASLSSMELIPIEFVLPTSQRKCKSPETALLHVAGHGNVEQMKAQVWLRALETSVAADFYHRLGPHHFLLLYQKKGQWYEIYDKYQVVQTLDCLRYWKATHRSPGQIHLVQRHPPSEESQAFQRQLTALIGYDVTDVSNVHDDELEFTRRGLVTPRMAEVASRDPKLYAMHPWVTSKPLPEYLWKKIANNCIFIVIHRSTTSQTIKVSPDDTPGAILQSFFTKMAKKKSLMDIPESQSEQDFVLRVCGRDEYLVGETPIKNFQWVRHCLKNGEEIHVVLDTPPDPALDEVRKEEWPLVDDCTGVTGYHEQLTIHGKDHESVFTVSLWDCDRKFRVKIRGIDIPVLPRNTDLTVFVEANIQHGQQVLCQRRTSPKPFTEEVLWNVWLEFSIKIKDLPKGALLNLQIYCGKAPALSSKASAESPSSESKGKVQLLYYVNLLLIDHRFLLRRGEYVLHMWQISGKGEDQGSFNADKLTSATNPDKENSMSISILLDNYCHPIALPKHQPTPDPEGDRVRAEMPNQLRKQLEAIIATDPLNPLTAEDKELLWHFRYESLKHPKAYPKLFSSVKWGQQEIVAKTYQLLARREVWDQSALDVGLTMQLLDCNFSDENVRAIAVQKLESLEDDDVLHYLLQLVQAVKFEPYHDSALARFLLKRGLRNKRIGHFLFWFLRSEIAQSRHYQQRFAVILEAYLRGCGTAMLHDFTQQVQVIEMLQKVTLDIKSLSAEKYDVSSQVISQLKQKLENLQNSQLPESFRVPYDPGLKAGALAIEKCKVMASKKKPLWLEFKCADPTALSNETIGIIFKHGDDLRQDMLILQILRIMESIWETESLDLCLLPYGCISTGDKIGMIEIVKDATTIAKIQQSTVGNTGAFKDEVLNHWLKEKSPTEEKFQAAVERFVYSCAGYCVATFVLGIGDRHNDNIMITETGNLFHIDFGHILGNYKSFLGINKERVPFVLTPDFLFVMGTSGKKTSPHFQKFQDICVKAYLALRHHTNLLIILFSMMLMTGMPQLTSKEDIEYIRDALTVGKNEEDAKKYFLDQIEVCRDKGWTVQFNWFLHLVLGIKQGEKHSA
Description: as §2

MTOR_h = MTOR_h (Homo sapiens (Human), UniProt P42345); assay: KINOMEscan enzyme binding assay, MTOR; conditions: DiscoveRx
Description: as §2

[1] = system: Akt phosphorylated at Ser473 in PC-3 cells; assay: Cellular assay: phosphorylation of Akt (Ser473) in PC-3 cells, MSD ELISA; format: cell-based; conditions: 60 min incubation with compound, read-out: IC50 pAkt_S473
Description: (§3) Cellular activity of PI3Kβ inhibitors was determined by quantifying the phosphorylation of Akt in PC-3 cells. Akt phosphorylated at Ser473 and Thr308 were measured using an enzyme-linked immunosorbent assay (ELISA; Meso Scale Discovery (MSD), Gaithersburg, Md.) and specific primary antibodies from MSD.
(§4) On day 1, PC3 cells (ATCC # […]) were seeded into PerkinElmer MW96 plates at 25.000 cells per well, in 75 μl complete culture medium (DMEM (Dulbecco's Modified Eagle's Medium) high glucose, AQmedia™, D0819, Sigma-Aldrich) containing 10% heat inactivated FCS (Fetal Bovine Serum) and incubated at 37° C., 5% CO2 during 24 hours. On day 2, compound or DMSO (dimethyl sulfoxide) (0.3%) was added and cells were further incubated for 60 min at 37° C., 5% CO2 in a total volume of 100 μl of medium.
(§5) The phosphoprotein assay was executed according to vendor instructions in the Phospho-Akt (Ser473) Assay Whole Cell Lysate Kit (MSD # K15100D-3) and the Phospho-Akt (Thr308) Assay Whole Cell Lysate Kit (MSD # K151DYD-3) using the lysis, blocking and wash buffer provided.
(§6) Briefly, at the end of the cell treatment period, media were removed by aspiration and adherent cells were lysed in 50 μl ice-cold lysis buffer. MSD plates are supplied pre-coated with capture antibodies for Phospho-Akt (Ser473 and Thr308). After blocking, lysates from tissue culture plates were added and plates were washed. Then, a solution containing the detection antibody (anti-total Akt conjugated with an electrochemiluminescent compound-MSD Sulfo-tag label) was added. The signals were detected using an MSD SECTOR Imager 6000 and are proportional to the phospho-Akt titres.
(§7) Data were processed. The percentage of inhibition was plotted against the log concentration of test compounds, and the sigmoidal log concentration-effect curve of best fit was calculated by nonlinear regression analysis. From these concentration-response curves, the IC50 values were calculated. Five concentrations were used for curve fitting.

PIK3Cβ_h = PIK3Cβ_h (Homo sapiens (Human), UniProt P42338); assay: KINOMEscan enzyme binding assay, PIK3Cβ; conditions: DiscoveRx
Sequence of PIK3Cβ_h (P42338 whole entry): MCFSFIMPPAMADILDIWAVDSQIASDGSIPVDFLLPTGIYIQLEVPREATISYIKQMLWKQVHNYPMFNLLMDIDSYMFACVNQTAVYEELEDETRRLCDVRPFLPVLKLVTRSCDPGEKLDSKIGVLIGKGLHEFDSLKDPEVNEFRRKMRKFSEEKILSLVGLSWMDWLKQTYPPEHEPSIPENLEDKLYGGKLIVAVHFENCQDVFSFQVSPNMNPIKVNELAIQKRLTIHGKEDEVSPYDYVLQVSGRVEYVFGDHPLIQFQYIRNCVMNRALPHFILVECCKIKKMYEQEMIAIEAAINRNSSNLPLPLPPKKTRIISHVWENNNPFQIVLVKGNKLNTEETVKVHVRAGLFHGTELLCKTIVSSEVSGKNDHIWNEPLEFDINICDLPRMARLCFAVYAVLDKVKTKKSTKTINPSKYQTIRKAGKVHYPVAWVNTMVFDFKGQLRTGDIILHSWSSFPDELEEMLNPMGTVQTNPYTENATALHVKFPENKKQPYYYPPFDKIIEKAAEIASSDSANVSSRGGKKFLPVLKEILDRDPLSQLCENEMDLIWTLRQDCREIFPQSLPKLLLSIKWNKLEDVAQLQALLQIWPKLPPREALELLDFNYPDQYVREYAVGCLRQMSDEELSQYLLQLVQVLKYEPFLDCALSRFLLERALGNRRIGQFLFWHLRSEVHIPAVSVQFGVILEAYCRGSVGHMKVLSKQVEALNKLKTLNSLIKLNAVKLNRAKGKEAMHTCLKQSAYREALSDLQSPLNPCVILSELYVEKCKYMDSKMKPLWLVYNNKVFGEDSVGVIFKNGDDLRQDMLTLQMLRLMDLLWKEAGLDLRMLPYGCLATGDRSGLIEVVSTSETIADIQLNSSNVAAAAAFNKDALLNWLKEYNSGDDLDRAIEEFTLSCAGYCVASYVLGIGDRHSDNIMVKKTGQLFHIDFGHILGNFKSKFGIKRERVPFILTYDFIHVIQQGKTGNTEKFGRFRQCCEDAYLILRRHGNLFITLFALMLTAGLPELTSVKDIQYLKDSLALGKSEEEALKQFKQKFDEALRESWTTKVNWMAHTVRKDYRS
Description: as §1

[2] = system: Akt phosphorylated at Thr308 in PC-3 cells; assay: Cellular assay: phosphorylation of Akt (Thr308) in PC-3 cells, MSD ELISA; format: cell-based; conditions: 60 min incubation with compound, read-out: IC50 pAkt_Thr308
Description: as §3, §4, §5, §6, §7

Sequence of PIK3Cδ_h (O00329 whole entry): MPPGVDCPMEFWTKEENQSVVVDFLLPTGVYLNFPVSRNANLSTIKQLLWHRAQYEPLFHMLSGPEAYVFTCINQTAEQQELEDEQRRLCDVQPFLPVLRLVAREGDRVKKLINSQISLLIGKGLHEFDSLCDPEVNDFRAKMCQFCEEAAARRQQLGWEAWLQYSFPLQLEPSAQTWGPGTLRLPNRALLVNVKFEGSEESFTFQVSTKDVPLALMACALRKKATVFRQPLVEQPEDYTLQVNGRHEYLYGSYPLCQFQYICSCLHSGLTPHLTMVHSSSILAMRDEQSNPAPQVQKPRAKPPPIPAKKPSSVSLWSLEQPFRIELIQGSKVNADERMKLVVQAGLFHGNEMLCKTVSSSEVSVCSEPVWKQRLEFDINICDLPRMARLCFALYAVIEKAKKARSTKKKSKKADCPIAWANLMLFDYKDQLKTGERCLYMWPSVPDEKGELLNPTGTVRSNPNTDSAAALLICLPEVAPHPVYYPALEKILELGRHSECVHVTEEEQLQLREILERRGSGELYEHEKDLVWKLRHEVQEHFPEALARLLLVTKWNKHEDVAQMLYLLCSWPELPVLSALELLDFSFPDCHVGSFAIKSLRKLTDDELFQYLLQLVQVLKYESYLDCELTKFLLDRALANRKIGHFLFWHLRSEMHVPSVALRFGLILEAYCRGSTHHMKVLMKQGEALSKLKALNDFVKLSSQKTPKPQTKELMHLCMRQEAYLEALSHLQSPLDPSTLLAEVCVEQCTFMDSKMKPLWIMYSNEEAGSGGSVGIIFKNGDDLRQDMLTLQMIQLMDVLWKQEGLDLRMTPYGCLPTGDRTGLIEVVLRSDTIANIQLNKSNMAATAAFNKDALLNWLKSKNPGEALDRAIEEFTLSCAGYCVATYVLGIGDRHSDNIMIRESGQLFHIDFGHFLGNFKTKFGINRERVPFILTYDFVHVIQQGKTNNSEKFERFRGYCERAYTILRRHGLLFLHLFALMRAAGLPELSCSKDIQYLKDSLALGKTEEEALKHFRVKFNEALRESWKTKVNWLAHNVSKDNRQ

Row | SMILES | Kd (PIK3Cδ_h) [nM] | Kd (PIK3Cα_h) [nM] | Kd (PIK3Cγ_h) [nM] | Kd (MTOR_h) [nM] | IC50 ([1]; Homo sapiens, PC-3, 1 h) [nM] | Kd (PIK3Cβ_h) [nM] | IC50 ([2]; Homo sapiens, PC-3, 1 h) [nM] | IC50 [1] [nM] | IC50 [2] [nM]
1 | Cc1c(Cc2c(CN(C)CCS(C)(=O)=O)nc3c(N)cc(N4CCOCC4)nn23)cccc1C(F)(F)F [Compound 1] | 513 | 16600 | > 30200 | 23400 | ~34 | 2.4 | 74 | – | –
2 | Cc1c(Cc2c(CNCCS(C)(=O)=O)nc3c(N)cc(N4CCOCC4)nn23)cccc1C(F)(F)F [Compound 2] | 178 | 8130 | > 30200 | 23400 | 138 | 1.4 | 186 | – | –
3 | Cc1c(Cc2c(CNCCO)nc3c(N)cc(N4CCOCC4)nn23)cccc1C(F)(F)F [Compound 3] | 105 | 9550 | 15500 | 7940 | 120 | 1.1 | ~71 | – | –
4 | Cc1c(Cc2c(CNCCO)nc3c(-c4ncc[nH]4)cc(N4CCOCC4)nn23)cccc1C(F)(F)F [Compound 4] | 74 | 933 | 1150 | > 3310 | ~135 | 3.3 | ~120 | – | –
5 | Cc1nc2c(-c3cnc[nH]3)cc(N3CCOCC3)nn2c1Cc1cccc(C(F)(F)F)c1C [Compound 5] | 316 | 617 | 10200 | 2400 | ~59 | 6 | ~48 | – | –
6 | Cc1nc2c(N)cc(N3CCOCC3)nn2c1Cc1cccc(C(F)(F)F)c1C [Compound 6] | 955 | > 30200 | > 30200 | > 30200 | 123 | 5 | ~85 | – | –
7 | Cc1nc2c(-c3ncc[nH]3)cc(N3CCOCC3)nn2c1Cc1cccc(C(F)(F)F)c1C [Compound 7] | 525 | > 3310 | > 30200 | > 10000 | 269 | 15 | 135 | – | –
8 | Cc1nc2c(-c3ccn[nH]3)cc(N3CCOCC3)nn2c1Cc1cccc(C(F)(F)F)c1C [Compound 8] | 891 | 30200 | 14500 | 525 | 263 | 31 | 204 | – | –
9 | Cc1nc2c(C(=O)O)cc(N3CCOCC3)nn2c1Cc1cccc(C(F)(F)F)c1C [Compound 9] | 174 | 1350 | 5250 | 12900 | 513 | 1.4 | 316 | – | –
10 | Cc1nc2c(C(N)=O)cc(N3CCOCC3)nn2c1Cc1cccc(C(F)(F)F)c1C [Compound 10] | 12600 | > 30200 | > 30200 | > 30200 | 501 | 20 | > 513 | – | –
11 | Cc1nc2c(C(N)=O)cc(N3CCOCC3)nn2c1Cc1cccc(Cl)c1C [Compound 11] | 955 | 2690 | 6920 | 22400 | ~158 | 21 | 355 | – | –
12 | Cc1cccc(Cc2c(C)nc3c(C(=O)O)cc(N4CCOCC4)nn23)c1C [Compound 12] | 69 | 1070 | 6170 | 9330 | ~316 | < 1.5 | ~151 | – | –
13 | Cc1nc2c(C(=O)O)cc(N3CCOCC3)nn2c1Cc1cccc(Cl)c1C [Compound 13] | 56 | 525 | 3550 | 9550 | > 513 | 0.5 | ~263 | – | –
14 | Cc1c(Cc2c(CO)nc3c(N)cc(N4CCOCC4)nn23)cccc1C(F)(F)F [Compound 14] | 207 | > 9180 | > 8880 | > 5690 | – | 1.3 | – | ~63 | ~38
15 | Cc1c(Cc2c(CO)nc3c(N)cc(N4CCOCC4)nn23)cccc1C(F)(F)F [Compound 14a] | 225 | > 30200 | > 10000 | 6760 | – | 1.2 | – | ~46 | 38
16 | Cc1c(Cc2c(CO)nc3c(N)cc(N4CCOCC4)nn23)cccc1C(F)(F)F [Compound 14b] | 253 | > 10000 | > 8130 | > 30200 | – | 1.5 | – | 60 | 38

Row | SMILES | Kd (PIK3Cδ_h) [nM] | Kd (PIK3Cα_h) [nM] | Kd (PIK3Cγ_h) [nM] | Kd (MTOR_h) [nM] | IC50 ([1]; Homo sapiens, PC-3, 1 h) [nM] | Kd (PIK3Cβ_h) [nM] | IC50 ([2]; Homo sapiens, PC-3, 1 h) [nM] | IC50 [1] [nM] | IC50 [2] [nM]
17 | Cc1c(Cc2c(CO)nc3c(N)cc(N4CCOCC4)nn23)cccc1C(F)(F)F [Compound 14c] | 194 | > 10000 | > 30200 | 5250 | 50 | 1.2 | ~49 | – | –
18 | Cc1c(Cc2c(CO)nc3c(N)cc(N4CCOCC4)nn23)cccc1C(F)(F)F [Compound 14d] | – | – | – | – | – | – | – | 67 | 29
19 | Cc1c(Cc2c(CO)nc3c(N)cc(N4CCOCC4)nn23)cccc1C(F)(F)F [Compound 14e] | – | – | – | – | – | – | – | 52 | 41
20 | Cc1c(Cc2c(CO)nc3c(C(N)=O)cc(N4CCOCC4)nn23)cccc1C(F)(F)F [Compound 15] | 479 | 1100 | 2000 | > 30200 | ~91 | 7 | ~43 | – | –
21 | Cc1c(Cc2c(CF)nc3c(C(N)=O)cc(N4CCOCC4)nn23)cccc1C(F)(F)F [Compound 16] | > 3310 | > 10000 | > 3310 | > 30200 | 123 | 10 | 155 | – | –
22 | Cc1c(Cc2c(CF)nc3c(N)cc(N4CCOCC4)nn23)cccc1C(F)(F)F [Compound 17] | 427 | 17000 | 15800 | 14100 | 81 | 3.3 | ~50 | – | –
23 | CC(=O)NCc1nc2c(-c3ncc[nH]3)cc(N3CCOCC3)nn2c1Cc1cccc(C(F)(F)F)c1C [Compound 18] | 59 | > 30200 | > 30200 | > 30200 | 33 | 2 | 11 | – | –
24 | Cc1c(Cc2c(CO)nc3c(-c4cnc[nH]4)cc(N4CCOCC4)nn23)cccc1C(F)(F)F [Compound 19] | – | – | – | – | 28 | – | 26 | – | –
25 | Cc1nc2c(N)cc(N3CCOCC3)nn2c1Nc1cccc(C(F)(F)F)c1CO [Compound 51] | 166 | – | – | 11500 | 145 | 2.1 | ~81 | – | –
26 | Cc1nc2c(N)cc(N3CCOCC3)nn2c1Nc1cccc(C(F)(F)F)c1CN1CCC(O)C1 (stereo not shown) [Compound 74] | 31 | 4900 | – | – | 30 | 2.2 | 26 | – | –
27 | Cc1nc2c(N)cc(N3CCOCC3)nn2c1Nc1cccc(C(F)(F)F)c1CN1CCC(O)C1 (stereo not shown) [Compound 77] | 47 | 3160 | – | – | – | 1.4 | – | 58 | 25
28 | Cc1nc2c(N)cc(N3CCOCC3)nn2c1Nc1cccc(C(F)(F)F)c1CN1CCC(O)C1 (stereo not shown) [Compound 78] | 35 | 3240 | – | – | – | 1.3 | – | 51 | 26
29 | Cc1nc2c(N)cc(N3CCOCC3)nn2c1Nc1ccccc1N1CCOCC1 [Compound 88] | 69 | 11200 | 8320 | 8710 | – | 12 | 120 | – | –
30 | CCc1c(F)cccc1Cc1c(CNCCO)nc2c(N)cc(N3CCOCC3)nn12 [Compound 101] | – | – | – | – | > 513 | – | > 513 | – | –
31 | Nc1cc(N2CCOCC2)nn2c(Cc3cccc(C(F)(F)F)c3C3CCN(CCO)CC3)c(CO)nc12 [Compound 105] | 537 | 26300 | > 30200 | > 30200 | – | 1.2 | 85 | – | –

— patent US10087187B2, “Imidazopyridazine derivatives as PI3KB inhibitors” (Janssen Pharmaceutica NV, priority 2014, dated 2018)
